Laboratory results reported in PubChem BioAssay AID493108 (The Scripps Research Institute Molecular Screening Center, 2011).
Calls of active or inactive are those of the source. No rule for the calls is given here.

What was measured:
Test in all cases: LYPLA1 and LYPLA2 inhibition in cells, late-stage follow-up, cell-based, gel-based ABPP, fluorescence (AID 493108)
Settings in all cases: competitive ABPP fluorescence gel, serine hydrolase inhibition, at 0.03 µM, active compounds read high
LYPLA2 = system: LYPLA2
ABHD11 = system: ABHD11
LYPLA1 = system: LYPLA1

Row | inhibition (LYPLA2) | inhibition (ABHD11) [%] | inhibition (LYPLA1) | SMILES
1 | 100% | 100 | 100% | CC(C)(C)C1CCN(C(=O)n2ncc(C(O)(c3ccccc3)c3ccccc3)n2)CC1
2 | 100% | 100 | 100% | CC(C)(O)c1cnn(C(=O)N2CCC(C(C)(C)C)CC2)n1
3 | 0% (inactive) | 100 | 0% (inactive) | CCC1CCCCN1C(=O)n1ncc(C(O)(c2ccccc2)c2ccccc2)n1 (centres undefined)
